Test results published in paper PMC2882366 (PLoS ONE, 2010).

Tested on: p/t-S6RP in PBMC
Experiment: PBMC p-S6RP/t-S6RP by electrochemiluminescence
Assay type: in vivo, dog
Experimental: Modulation of mTOR pathway targets were evaluated in matched tumor ( Figure 4A .) and PBMC samples ( Figure 4B .) to compare p-S6RP and p-AKT expression pre- and post-rapamycin treatment. ECL techniques were utilized to accurately quantify the relative percentage of phospho-protein over total protein (p/t) in tumor and PBMC. Quality control assessments defined 10 tumor and 8 PBMC samples eligible for evaluation. […] Modulation of mTOR pathway targets in PBMC and tumor samples were concordant.
PBMCS were collected in two (2) 8 ml BD CPT vacutainers (Becton Dickinson, Franklin Lakes, NJ) with sodium heparin, each filled completely with whole blood. […]
The samples (cell lines, tumor, PBMC) used for ECL were prepared based on the Meso-Scale Discovery (MSD) lysate preparation protocol (Meso-Scale Discovery, Gaithersburg, MD) using complete lysis buffer with protease and phosphatase inhibitors. For quantitative analysis of phospho-proteins, duplex t/p-AKT (S473) and duplex t/p-S6RP (S240/S244) were obtained from MSD, used following manufacturer's instructions, and read with Sector Imager 2400 (MSD). […] Out of the 19 paired tumor biopsies analyzed, 9 were excluded due to values below the detection limit, of which 8 were from one trial site. […] PBMC from 8 patients were analyzed for p-S6RP/t-S6RP and all data was shown.

With `CO[C@H]1C[C@@H]2CC[C@@H](C)[C@@](O)(O2)C(=O)C(=O)N2CCCC[C@H]2C(=O)O[C@H]([C@H](C)C[C@@H]2CC[C@@H](O)[C@H](OC)C2)CC(=O)[C@H](C)/C=C(\C)[C@@H](O)[C@@H](OC)C(=O)[C@H](C)C[C@H](C)/C=C/C=C/C=C/1C` [rapamycin, Rapamycin] as the molecule, how does the “PBMC p/t-S6RP inhibition” value (Day 8, maintained through Day 15, n = 8, p<0.0001) read?
Its value is “highly significant”.

And the “dogs with PBMC phosphorylation of S6RP significantly inhibited” value (Day 8 after rapamycin therapy)?
Its value is 8/8.
